According to patent publication US8841271B2, “Oligonucleotide complex compositions and methods of use as gene alteration tools” (The General Hospital Corporation, priority 2004, dated 2014):
Where “and” joins values, the source holds several entries; their conditions need not be identical. Identical values can stand only once. Entries after “also recorded” stand apart in the source; their conditions may differ. In the oligonucleotide strings, read from the 5' end, every base follows the letter of its sugar. An asterisk marks phosphorothioate; unmarked linkages are phosphodiester. Other units and linkages are bracketed, terminal groups are in braces. A string of capitals states the bases alone. m = 2'-O-methyl; r = 2'-OH (RNA); {P} = phosphate

Columns and labels:
[1] = tested on: Δ508CFTR expressing cells; assay: Whole-cell patch clamp, cAMP-activated whole cell currents; type: cell-based, mouse
Experimental: (§1) Mouse mammary carcinoma cells (c127i) transfected with human epithelial CFTR wild type (WT1) or Δ508 CFTR cells [Cannello et al., (1994), J. Biol. Chem. 269, 11224-11232; Dechecchi et al., (1993) J. Biol. Chem. 268, 11321-11325] were used for these studies. The transfected c127i cells are high level producers of Δ508 CFTR mRNA. Cells were grown and maintained in Dulbecco's medium (DMEM), supplemented with 10% fetal bovine serum and 1% L-glutamine, as previously reported [Verkman, (1990) Am. J. Physiol. 259, C375-C388].
(§2) Whole-cell and excised inside-out patches were obtained to assess cAMP-PKA dependent anion currents in treated Δ508 cells. Currents and command voltages were obtained and driven. respectively, with a Dagan 3900 amplifier using a 1 gigaohm headstage. The excised patch-clamp configuration was carried out as previously described [Reisin et al., (1994) J. Biol. Chem. 269, 20584-20591]. Single channel data were obtained between ±100 mV in symmetrical Cl^−. Data were further analyzed as previously described [Reisin et al., (1994) J. Biol. Chem. 269, 20584-20591]. The pipette and bathing solution contained, in mmol/L, either: NaCl 140, MgCl2 1.0, KCl 5, and N-2-hydroxyethylpiperazine N′-2-ethanesulfonic acid (HEPES) 10, at pH 7.4, or MgCl2 70, HEPES 10, pH 7.4. The bathing solution also contained 1.0 mmol/L CaCl2. Whenever indicated, the patch-pipette was filled up to at least one third of its height with either MgATP or TrisATP (100 mmol/L, pH 7.4 adjusted with N-methyl-glucamine) as previously reported [Reisin et al., (1994) J. Biol. Chem. 269, 20584-20591]. Experiments were conducted at room temperature. The cAMP stimulatory mixture contained 8-Br-cAMP, isobutyl-methyl-xanthine (IBMX) and forskolin. Final concentrations were 500 μmol/L, […], and 10 μmol/L, respectively. The catalytic subunit of PKA was used at a final concentration of 20 μg/ml. The Cl^− channel blocker, diphenylamine-2-carboxylate (DPC) was kept in a 100-fold stock solution (20 mmol/L) in 50% water/ethanol. DPC was used at a final concentration of 500 μM.
To restore the normal (wild type) phenotype in cells expressing Δ508CFTR, modified oligonucleotides were constructed and their effect on ion transport was assessed in Δ508 cells treated with these constructs. In a first step, a modified oligodeoxyribonucleotide was synthesized, containing phosphorothioate (PS) and PS plus 2′-O-methyl modifications for the central and flanking segments, respectively. This oligonucleotide was designed to hybridize in Watson-Crick base complementarity to the region of Δ508 mRNA where the PS section would be directly opposite the Δ508 mRNA position, flanked 3′- and 5′- by adjacent nucleotides complementary to the Δ508 mRNA. Accordingly, the PS segment would activate endogenous RNase H, and cleave those bases opposite the PS complementary oligonucleotide (10 μM). The insertion of bases then occurs in a second step.
For the second or insertion step, two complementary single strand oligonucleotides, CF4 and CF6 (Table 1, Scheme 1A) were constructed. The annealed CF4/CF6 duplex (10 μM final concentration) was added to the Δ508 CFTR cells after 2 hours incubation, then washout, in the deletion step. Next, following overnight or up to 72 hour incubation in the second (insertion) step, patch clamp examination was conducted on the treated cells.

[2] = tested on: Δ508CFTR expressing cells; assay: Single channel currents in excised inside-out patches (PKA and ATP activation); type: cell-based, mouse; conditions: treated Δ508 cells
Experimental: as §1
Whole-cell and excised inside-out patches were obtained to assess cAMP-PKA dependent anion currents in treated Δ508 cells. Currents and command voltages were obtained and driven. respectively, with a Dagan 3900 amplifier using a 1 gigaohm headstage. The excised patch-clamp configuration was carried out as previously described [Reisin et al., (1994) J. Biol. Chem. 269, 20584-20591]. Single channel data were obtained between ±100 mV in symmetrical Cl^−. Data were further analyzed as previously described [Reisin et al., (1994) J. Biol. Chem. 269, 20584-20591]. The pipette and bathing solution contained, in mmol/L, either: NaCl 140, MgCl2 1.0, KCl 5, and N-2-hydroxyethylpiperazine N′-2-ethanesulfonic acid (HEPES) 10, at pH 7.4, or MgCl2 70, HEPES 10, pH 7.4. The bathing solution also contained 1.0 mmol/L CaCl2. […]

[3] = tested on: Δ508 cells; assay: SPQ fluorescence assay of cAMP-stimulated Cl- transport; type: cell-based, mouse; conditions: CF4/CF6 treated Δ508 cells compared with WT1 cells; control Δ508 cells no change
Experimental: as §1
Cyclic-AMP-stimulated CY transport was also followed by fluorescence changes of cells loaded with the CY sensitive dye 6-methoxy-N-(3-sulfopropyl)quinolinium (SPQ) [Verkman, (1990) Am. J. Physiol. 259, C375-C388]. Briefly, cells were grown to partial confluence on glass coverslips. […] SPQ fluorescence was determined under an oil immersion X20 objective in a Nikon E-800 fluorescence microscope (Tokyo, Japan), with an UV filter (96101C UV-2E/C). […] Pictures were analyzed digitally with the NIH Image 1.62b7 software. SPQ cytoplasmic fluorescence values were normalized between intra-nuclear (considered as zero quenching, i.e. low Cl^−), and extracellular background. Data were expressed as percent fluorescence with respect to time zero, the time when cells were placed in an isotonic saline solution. […]

[4] = tested on: Δ508 CFTR mRNA; assay: RT-PCR, subcloning and sequencing of CFTR mRNA; type: cell-based, human; conditions: mRNA from CF4/CF6 treated Δ508 cells (10 μM), subcloned RT-PCR products
Experimental: Total RNA isolated by Trizol® reagent according to the manufacturer's protocol (Invitrogen, CA) from either WT1 or Δ508 cells treated with or without CF6/CF4 annealed duplex oligonucleotides (final concentration of duplex in reaction mixture 10 μM) was used to perform the RT-PCR assay [Kleppe et al., (1971) J. Mol. Biol. 56, 341-361] in two steps by using a ThermoScript RT-PCR system (GIBCO, BRL). Several sets of primers were used (see CF Table 1). In the first step, total RNA (˜2 μg) was incubated for […] at 55° C. with amplification refractory mutation system (ARMS) [Ferric et al., (1992) Am. J. Hum. Genet. 51, 251-262] reverse mutant (M1) and normal (N1) primers (0.5 μg each) separately for the first-strand synthesis. In a second step, after heating at 94° C. for 5 mM, 35 cycles of PCR were carried out on the samples. PCR cycles were performed first by denaturation at 94° C. for 2 mM, annealing at 62° C. for 1 min, and extension at 72° C. for 2 min, followed by a final extension for 10 mM at 72° C. Two ARMS reverse primers (N1 and M1) [Ferric et al., (1992) Am. J. Hum. Genet. 51, 251-262], and a forward (F1) primer were used (Table 1). Similarly RT-PCR was performed with ARMS PS reverse primer (SCFR) and PS forward primer (SNF1, Table 1). RT-PCR products were separated in 3% agarose gel and subjected to automated DNA sequence analysis. […]

[5] = tested on: DNA genome of Δ508 cells; assay: RT-PCR analysis of DNA from subcloned treated Δ508 cells; type: cell-based; conditions: subcloned Δ508 cells originally treated with CF4/CF6
Experimental: (§3) Without being limited by any particular mechanism, the hypothesis was tested as to whether base insertion in the treated Δ508 cells has occurred at the RNA level. It was possible that the repair mechanism was carried out instead of/or in addition to, the DNA level, by way of reverse transcription extending back to the genome. This was tested by RT-PCR analysis of DNA from subcloned Δ508 cells originally treated with CF4/CF6. No evidence was obtained that the restored phenotype was carried back to the inheritable DNA genome level was obtained. Western blot analysis was conducted with antibodies targeted to epitopes upstream and downstream of the Δ508 deletion, respectively.

[6] = tested on: CFTR protein; assay: Western blot with antibodies to epitopes upstream and downstream of the Δ508 deletion; type: cell-based, human; conditions: both antibodies same level of protein, no truncated or degraded peptides
Experimental: as §3

[7] = tested on: CFTR; assay: DPC block of cAMP-activated whole cell currents in treated Δ508 cells; type: cell-based, human; conditions: DPC 500 μM
Experimental: as §2, with “The Cl^− channel blocker, diphenylamine-2-carboxylate (DPC) was kept in a 100-fold stock solution (20 mmol/L) in 50% water/ethanol. DPC was used at a final concentration of 500 μM.” left out

[8] = two step treated Δ508 cells, n=24

Compound | time to restoration of CFTR channel function ([1]; CF4/CF6 duplex added to Δ508 cells in tissue culture, patch clamping and SPQ quenching) [h] | whole-cell currents in the absence of cAMP stimulation ([1]; CF4/CF6 treated cells, data not shown) | cAMP-activated whole cell conductance ([1]; CF4/CF6 treated Δ508 cells, FIG. 1, untreated Δ508 cells lacked it) | persistence of restored CFTR function ([1]; after cell replication and washing out of the oligonucleotide after a few days incubation) | phenotypic reversion by patch clamp ([1]; one step: CF4/CF6 duplex added without first oligonucleotide treatment step) | increase of whole cell currents after cAMP stimulation ([1]; two step treated Δ508 cells (PS oligonucleotide 10 μM 2 h, washout, then CF4/CF6 10 μM overnight to 72 h), n=24, p<0.01) [%] | whole cell conductance after cAMP stimulation [1, 8] [nS/Cell] | whole cell conductance before cAMP stimulation [1, 8] [nS/Cell] | single channel conductance of PKA-activated Cl- channels ([2]; excised inside-out patches) | treated cells displaying PKA and ATP activated Cl- channels ([2]; control Δ508 cells 0/24) | change in SPQ fluorescence in response to cAMP stimulation [3] | UGU insertion in Δ508 mRNA (percentage of subclones showing TGT insertion) [4] | restored phenotype carried back to the inheritable DNA genome level [5] | CFTR protein made in the presence of the oligonucleotides [6] | effect on cAMP-activated currents ([7]; CF4/CF6 treated Δ508 cells, FIG. 1) | inhibition of cAMP-activated currents ([7]; two step treated Δ508 cells) [%]
CF4/CF6: 2′-O-methyl RNA/unmodified RNA oligonucleotide duplex of CF4 (SEQ ID NO: 1) and CF6 (SEQ ID NO: 2) (chain 1 mAmUmCmAmUmAmGmGmAmAmAmCmAmCmCmAmAmAmGmAmUmGmAmUmAmUmUmUmUmCmUmUmU; chain 2 {P}-rCrArUrCrUrUrUrGrGrUrG-{P}; listed as Homo sapiens) | 8 to 18 | sporadically showed large, DPC inhibitable whole-cell currents | robust cAMP response | restoration of CFTR function was lost | phenotypic reversion was likewise found | 243 | 2.98±0.68 | 0.87±0.16 | 10-12 pS and 12 pS | 10/12 | comparably similar change in SPQ fluorescence | 20-30% | No evidence | full-length protein was made; also recorded: does not act as an inhibitor of protein synthesis | – | –
O=C(O)c1ccccc1Nc1ccccc1 [DPC, diphenylamine-2-carboxylate] | – | – | – | – | – | – | – | – | – | – | – | – | – | – | inhibited | > 84
